Square brackets hold non-standard residues; d marks the D form. Ends that are not written are not given here. Peptide text beside a SMILES is read from it. * marks the point of attachment. Phe(3,4-F2) = N[C@@H](Cc1ccc(F)c(F)c1)C(=O)O; Phe(4-Br) = N[C@@H](Cc1ccc(Br)cc1)C(=O)O; Phe(4-NH2) = Nc1ccc(C[C@H](N)C(=O)O)cc1; Dab = NCC[C@H](N)C(=O)O; Nle = CCCC[CH](N)C(=O)O; Abu = CC[C@H](N)C(=O)O; Dap = NC[C@H](N)C(=O)O; X1 = OB(O)C(CCCBr)N*; Ahx = NCCCCCC(=O)O
What was measured:
LNCaP cells = assay: KLK activity and expression in LNCaP cells after AR signaling perturbation (streptavidin enrichment and immunoblotting); assay type: cell-based, human; conditions: 10 nM DHT ± 10 μM Enz, 48 h
Method: (B) KLK activity and expression in the LNCaP cell line after treatment with 10 nM DHT ± 10 μM Enz. KLK activity was assessed by streptavidin enrichment of probe-labeled KLK molecules following treatment of conditioned media with 1 μM of either 31, 20, or 39 for 1 h.
To enable detection of each KLK in WT LNCaP cells, we incubated LNCaP conditioned media with 1 μM of each KLK ABP, enriched labeled proteins on streptavidin beads, and visualized activity levels by immunoblotting with the appropriate KLK antibody (see Figure S19 for workflow).
Routine cell culture conditions: Wild-type LNCaP cells (passage <15) were grown in RPMI
Androgen-signaling Experiments: LNCaP cells grown to 80 % confluency in a T175 plate
were incubated with phenol red-free RPMI media supplemented with 5 % charcoal-stripped
FBS for 24 h. After 24 h, the media was aspirated, and the cells were incubated with serum-
free RPMI media (0 % FBS and phenol red-free) supplemented with the appropriate treatment
condition (10 nM DHT or 10 nM DHT + 10 μM Enzalutamide) for a further 48 h. After 48 h the
media was collected, passed through a 0.2 μm syringe filter and stored at – 80 °C until needed.

KLK3 [1] = conditions: cited from earlier work
KLK3 [2] = molecular target: T1, KLK3 (Homo sapiens, UniProt P07288); assay: Competitive ABPP against 3 in LNCaP conditioned media, densitometry; assay type: biochemical; conditions: LNCaP CM, analogue 1 h then 20 μM 3 for 1 h; 16 analogues tested
T1 construct: endogenous in cells; host or cells: LNCaP cells treated with 10 nM DHT; conditioned medium
Method: Despite exquisite selectivity, maximal KLK3 labeling was achieved only after treatment with 20 μM 3 for 1 h. We therefore optimized probe potency by systematically modifying each amino acid side chain in the P1–P4 positions of a morpholine-capped peptidyl-DPP inhibitor scaffold and determined the potency of each analogue using competitive-ABPP against 3.[25],[26] LNCaP CM was first incubated with a peptidyl-DPP analogue for 1 h, followed by 1 h treatment with 20 μM 3 to assess the degree of KLK3 inhibition by densitometry (Figures S4 and S5 for fluorescent gels and Figure S6 for structures of each morpholine-capped peptidyl-DPP analogue). […] Second generation biotinylated 20 and fluorescent 21 ABPs (Figures 2G and S7) based on this scaffold retained exquisite selectivity for KLK3 in LNCaP CM, but in contrast to first-generation ABP 3 achieved maximum labeling at only 1 μM and readily detectable labeling down to 130 nM (Figures 2H and S7).
Figure S4: Typical gel obtained from assessment of the potency of P1 (top) and P2 (bottom) morpholine-DPP analogues against KLK3 using competitive ABPP. […] Residual KLK3 activity was calculated using densitometry (ImageQuant) by comparing to a DMSO treated sample. […]

KLK2 = molecular target: T2, KLK2 (Homo sapiens, UniProt P20151); assay: Determination of kinact/KI, fluorogenic substrate kinetic assay; assay type: biochemical; conditions: for selectivity (fold-change): KLK2 over KLK14
T2 construct: purchased R&D Systems
From the text: 1.1 Chemicals and Reagents
All chemicals and reagents were purchased from commercial suppliers and used without further purification. Rink Amide resin (100-200 mesh) and 2-Chlorotrityl chloride resin (100-200 mesh, 1% DVB) were obtained from Merck. Natural Fmoc-amino acids were obtained from AGTC Bioproducts Ltd. Unnatural Fmoc-amino acids were obtained from Fluorochem, Alfa Aesar, VWR, Merck, Iris Biotech, Bachem or Sigma Aldrich. Culture media, fetal bovine serum, trypsin, antibiotics and chemicals required for differentiation of osteoprogenitor cells were obtained from Sigma Aldrich, Gibco or Invitrogen. Amicon 3 KDa Centrifugal filter units were obtained from Merck. Recombinant human KLK2 and KLK14 were obtained from R&D Systems and activated using the supplier’s protocol. All remaining chemical reagents were obtained from VWR, Sigma Aldrich or Merck. […]
Fluorescent plate-based enzymatic assays were carried out using an Envision 2104 Multilabel Plate Reader (PerkinElmer) operating in kinetic mode for a minimum of 20 min with excitation/emission […]
Specificity […]
was calculated by normalizing RFUs-1 to the highest value, which was set at 100 %.
Calculations were made in GraphPad Prism 5.
Determination of kcat/KM: The KLK2 substrate and KLK14 substrate were serially diluted in the appropriate KLK assay buffer and 25 μL was added to the wells of a 96-well plate. Next, 25 μL of KLK2 (1.5 nM) or KLK14 (75 pM) was added to each well containing the substrate and the enzyme-substrate reaction was monitored for at least 10 min. The linear portion of each progress curve was used to calculate relative fluorescence units per second (RFUs-1).
KM, kcat, and kcat/KM parameters were determined by nonlinear regression in GraphPad Prism 5 (GraphPad Software). Each experiment was repeated three times and the results are presented as an average ± SEM.
Determination of kinact/KI: Under pseudo-first order conditions, a fixed amount of KLK2 (1.5 nM) or KLK14 (37 pM) was incubated with peptidyl-DPP analogue at different concentrations in the presence of 5 µM of substrate. The pseudo first-order rate constant, kobs, was calculated for each probe concentration using non-linear regression analysis in GraphPad Prism 5. The obtained values were plotted against probe concentration to afford the apparent second order rate constant kinact(app)/KI. The absolute value of the second order rate constant was then obtained by adjusting for the substrate competition factor (1 + [S]/Km), where S is the concentration of substrate in the assay and KM is the Michaelis Menten constant for that substrate/enzyme reaction.
2.5 Cell Migration Assays
Cell migration: The assay was performed as per the manufacturer’s protocol (https://www.corning.com/catalog/cls/documents/protocols/an_Chemotaxis_protocol.pdf).
Briefly, LNCaP-WT, LNCaP-mK14 and LNCaP-K14 cells were grown to 80% confluency in RPMI media supplemented with 5 % FBS. The media was then aspirated, the cells were washed with 2 mL PBS (3*) and incubated with serum-free RPMI (without phenol red) supplemented with 10 nM DHT ± 100 ng/mL Dox for 24 h. Cells were trypsinized, washed twice with serum-free RPMI and resuspended in serum-free RPMI. 100,000 cells in 100 µL of serum-free RPMI was then added to the transwell inserts placed in a 24-well plate (Corning […]
Figure S15: KLK2 and KLK14 substrates. (A) Structures (B) Optimal assay conditions for […]
S19) inhibitors (C) Michaelis-Menten (K M) and rate (kcat) constants for KLK substrates

KLK14 = molecular target: T3, KLK14 (Homo sapiens, UniProt Q9P0G3); assay: as above; assay type: biochemical; conditions: for kinact/KI / Kinact/KI KLK14: mean ± SEM (N = 3); for selectivity (fold-change): KLK14 over KLK2
T3 construct: purchased R&D Systems
T3 sequence (Q9P0G3 25-251): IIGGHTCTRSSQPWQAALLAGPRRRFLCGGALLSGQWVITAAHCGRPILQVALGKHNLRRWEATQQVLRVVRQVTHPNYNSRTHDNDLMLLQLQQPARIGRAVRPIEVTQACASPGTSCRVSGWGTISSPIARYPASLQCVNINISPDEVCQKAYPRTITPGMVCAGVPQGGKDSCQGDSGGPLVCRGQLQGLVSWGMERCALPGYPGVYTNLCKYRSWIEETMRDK

[3] = KLK2 probe optimization series, mean ± SEM (N = 3)
[4] = KLK14 probe optimization series
[5] = KLK14 probe optimization series, mean ± SEM (N = 3)

T2 sequence (P20151 25-261): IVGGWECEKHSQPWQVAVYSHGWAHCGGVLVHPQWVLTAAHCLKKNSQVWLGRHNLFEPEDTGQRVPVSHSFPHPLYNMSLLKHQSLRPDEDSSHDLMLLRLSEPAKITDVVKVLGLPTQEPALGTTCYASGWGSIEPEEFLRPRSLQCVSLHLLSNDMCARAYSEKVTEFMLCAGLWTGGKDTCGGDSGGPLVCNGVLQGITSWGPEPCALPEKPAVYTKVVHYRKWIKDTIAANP
T1 sequence (P07288 25-261): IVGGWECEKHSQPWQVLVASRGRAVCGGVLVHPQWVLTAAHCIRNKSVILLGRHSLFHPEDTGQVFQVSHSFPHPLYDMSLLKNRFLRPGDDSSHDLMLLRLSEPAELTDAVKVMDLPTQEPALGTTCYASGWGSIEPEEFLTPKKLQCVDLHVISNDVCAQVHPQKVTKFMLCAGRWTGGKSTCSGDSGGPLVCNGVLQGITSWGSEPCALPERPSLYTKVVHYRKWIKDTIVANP

Row | Molecule | selectivity (fold-change) (KLK2; KLK2 probe optimization series) [fold] | Kinact/KI KLK2 (KLK2; [3]) [M^–1 s^–1] | Kinact/KI KLK14 (KLK14; KLK2 probe optimization series) [M^–1 s^–1] | Kinact/KI KLK14 (KLK14; [4]) [M^–1 s^–1] | other results
1 | C[C@]12CCC(=O)C[C@@H]1CC[C@@H]1[C@@H]2CC[C@]2(C)[C@@H](O)CC[C@@H]12 [DHT, dihydrotestosterone] | – | – | – | – | KLK14 expression and activity (LNCaP cells): decreased; expression and activity of KLK2 and KLK3 (LNCaP cells): upregulated
2 | O=C(NC(c1ccc(O)cc1)P(=O)(Oc1ccccc1)Oc1ccccc1)OCc1ccccc1 (stereo not shown) [compound 1] | – | – | – | – | KLK3 inhibition (in words) (KLK3 [1]): modestly potent inhibitor of KLK3
3 | CCCCC(NC(=O)C(CCC(N)=O)NC(=O)C(CO)NC(=O)C(Cc1ccccc1)NC(=O)CCCCCN)C(=O)NC(CCCBr)B(O)O (stereo not shown) [compound 2] (H-[Ahx]FSQ[Nle]-X1; configuration not given here) | – | – | – | – | KLK3 inhibition (in words) (KLK3 [1]): potent and selective KLK3 inhibitor
4 | CCC[C@H](NC(=O)[C@H](CCC(N)=O)NC(=O)[C@H](CC(N)=O)NC(=O)CN1CCOCC1)C(=O)NC(c1ccc(C(N)=O)cc1)P(=O)(Oc1ccccc1)Oc1ccccc1 (stereo partly shown) [compound 15] | – | – | – | – | KLK3 inhibition by competitive ABPP (KLK3 [2]): potent KLK3 inhibitor
5 | CCC(NC(=O)CCCCCNC(=O)CCCCC1SCC2NC(=O)NC21)C(=O)NC(CCN)C(=O)NC(CC1CCCCC1)C(=O)NC(c1ccc(NC(=N)N)cc1)P(=O)(Oc1ccccc1)Oc1ccccc1 (stereo not drawn) [compound 22, Abu-Dab-Cha-Arg] | 6 | – | – | – | kinact/KI (KLK2; [3]): 3270 ± 39 M⁻¹ s⁻¹; kinact/KI (KLK14; KLK2 probe optimization series): 511 ± 18 M⁻¹ s⁻¹
6 | CC(OCc1ccccc1)C(NC(=O)CCCCCNC(=O)CCCCC1SCC2NC(=O)NC21)C(=O)NC(CCCCN)C(=O)NC(Cc1cn(Cc2ccccc2)cn1)C(=O)NC(c1ccc(NC(=N)N)cc1)P(=O)(Oc1ccccc1)Oc1ccccc1 (stereo not shown) [compound 32, Thr(Bz)-Lys-His(Bz)-Arg] | – | – | – | – | kinact/KI (KLK14; [4]): 523 ± 46 M⁻¹ s⁻¹
7 | CNC(=O)c1ccc(N2C(=S)N(c3ccc(C#N)c(C(F)(F)F)c3)C(=O)C2(C)C)cc1F [enzalutamide] | – | – | – | – | KLK14 expression and activity (LNCaP cells): restored; expression and activity of KLK2 and KLK3 (LNCaP cells): nullified
8 | Abu-Dab-4 Pal-Arg [compound 24] | 7 | 2586 ± 54 | 390 ± 15 | – | –
9 | Abu-Dab-Phe(3-CI)-Arg [compound 25] | 8 | 3615 ± 107 | 443 ± 16 | – | –
10 | Abu-Lys(TFA)-Tyr-Arg [compound 29] | – | 128 ± 19 | – | – | –
11 | Thr(Bz)-Dab-Abu-Arg [compound 36] | – | – | – | 18274 ± 680 | Kinact/KI KLK2 (KLK2; [5]): 1668 ± 60 M^–1 s^–1; selectivity (fold-change) (KLK14; [4]): 11 fold
12 | Thr(Bz)-Dap-Abu-Arg [compound 37] | – | – | – | 12636 ± 496 | Kinact/KI KLK2 (KLK2; [5]): 1162 ± 40 M^–1 s^–1; selectivity (fold-change) (KLK14; [4]): 11 fold
13 | Thr(Bz)-Lys-Abu-Arg [compound 35] | – | – | – | 5903 ± 254 | Kinact/KI KLK2 (KLK2; [5]): 231 ± 9 M^–1 s^–1; selectivity (fold-change) (KLK14; [4]): 25 fold
14 | Thr(Bz)-Lys-Hse(Bz)Arg [compound 33] | – | – | – | 1121 ± 54 | –
15 | Thr(Bz)-Lys-Phe(3,4-F2)-Arg [compound 34] | – | – | – | 602 ± 33 | –
16 | Tyr(Bz)-Dab-Abu-Arg [compound 41] | – | – | – | 8894 ± 132 | Kinact/KI KLK2 (KLK2; [5]): 98 ± 4 M^–1 s^–1; selectivity (fold-change) (KLK14; [4]): 91 fold
17 | [Abu][Dab]WR [compound 27] | 9 | 2374 ± 37 | 270 ± 5 | – | –
18 | [Abu][Dab]YR [compound 26] | 14 | 7881 ± 249 | 552 ± 11 | – | –
19 | [Abu][Dab][Phe(3,4-F2)]R [compound 28] | 2 | 5653 ± 265 | 2526 ± 173 | – | –
20 | [Abu][Dab][Phe(4-NH2)]R [compound 23] | 4 | 1659 ± 35 | 432 ± 15 | – | –
21 | [Dap][Dab]YR [compound 30] | – | 1849 ± 53 | 134 ± 6 | – | –
22 | [Phe(4-Br)][Dab][Abu]R [compound 40] | – | – | – | 20215 ± 570 | Kinact/KI KLK2 (KLK2; [5]): 350 ± 9 M^–1 s^–1; selectivity (fold-change) (KLK14; [4]): 57 fold

Reference: PMC9282638, “A Suite of Activity-Based Probes To Dissect the KLK Activome in Drug-Resistant Prostate Cancer” (Journal of the American Chemical Society, 2021)
